In assay [1] the test system is advanced HCC. The note with it: phase III study, first line; Kudo et al. [10]; cited from earlier work.
In assay [2] the test system is HUH7 cells. Put plainly: growth of HUH7 cells. The assay is classed as cell-based. The note with it: in our hands.
In assay [3] the test system is HCC cells. The following applies: in vitro and in vivo; Xu et al. [23]; cited from earlier work.
For assay [4], the system named is advanced HCC. The note with it: SHARP test; proportion of good responders to sorafenib; cited from earlier work.

On to `COc1cc2nccc(Oc3ccc(NC(=O)NC4CC4)c(Cl)c3)c2cc1C(N)=O` [lenvatinib], for which the “overall survival compared to sorafenib” value in assay [1] is reported as “non-inferiority”.

As to `Cc1ncc(C[n+]2csc(CCO)c2C)c(=O)[nH]1` [oxythiamine], the “effect on the growth of HUH7 cells” value in assay [2] is “did not confirm the effect”. Moreover, the “efficacy in HCC cells” value in assay [3] is “effective”.

With `CNC(=O)c1cc(Oc2ccc(NC(=O)Nc3ccc(Cl)c(C(F)(F)F)c3)cc2)ccn1` [sorafenib], the objective response in assay [4] is reported as 2%.

(Values after patent publication US20240151732A1, “EX VIVO METHOD FOR ANALYSING A TISSUE SAMPLE USING PROTEOMIC PROFILE MATCHING, AND ITS USE FOR THE DIAGNOSIS, PROGNOSIS OF PATHOLOGIES AND FOR PREDICTING RESPONSE TO TREATMENTS” (Université de Bordeaux, priority 2021, published 2024).)
